Experimental data published in patent US5968912A, “Methods for immunosuppressing” (Immune Modulation, Inc., priority 1997, dated 1999).

How the values were obtained:
Format in all cases: cell-based, human
[1] = tested on: mononuclear leukocytes (Two-way MLR); test: Two-way mixed leukocyte reaction (MLR), 3H-thymidine incorporation; conditions: for inhibition at 0.01 µM / inhibition at 0.1 µM / inhibition at 1 µM / inhibition at 10 µM / inhibition at 100 µM: Homo sapiens, Leukocyte
[2] = tested on: Protein Kinase-C-Mediated T-cell Proliferation (PBMC); test: PK-C-mediated T-cell proliferation (PMA + A23187); conditions: PMA 1.25 ng/mL + A23187 0.25 μM; for Proliferation: 100 μM; for inhibition at 100 µM: Homo sapiens, T-cell
Description: Determination of the effect of HE-33 on PK-C-mediated signaling pathway
PBMC of a healthy volunteer were cultured in 96-well microtiter plates at 2×10^5 cells/well. […] Forskolin is an agent well known to increase intacellular cAMP levels by activating adenylate cyclase. Cultures were incubated for 3 days at 37° C. in a 5% CO2 incubator. Proliferative response was determined by incorporation of ^3 H-thymidine.. The results were expressed in CPM and % inhibition of proliferation (Table 7).

IL-4 = IL-4 production in PHA-stimulated PBMC cultures; parameters: % Inhibition of IL-4 production: concentration or dose not given beside the values
Description: (§1) Production of autocrine growth factors (IL-2, IL-4, IL-10 and Interferon-gamma) in PHA-stimulated human PBMC cultures
(§2) Culture supernatants were collected at the times indicated and frozen at -20° C. At the end of 96 hr., all supernatants were assayed by enzyme immunoassay for the presence of the cytokines: interleukin-2, -4, -10 and interferon (IFN)-gamma. Results were expressed in pg/mL concentration of cytokine and % inhibition of cytokine production.

Interferon-gamma = Interferon-gamma production in PHA-stimulated PBMC cultures; parameters: % Inhibition of IFN-γ production: concentration or dose not given beside the values
Description: as §1, §2

IL-10 = IL-10 production in PHA-stimulated PBMC cultures; parameters: % Inhibition of IL-10 production: concentration or dose not given beside the values
Description: as §1, §2

IL-2 = IL-2 production in PHA-stimulated PBMC cultures; parameters: % Inhibition of IL-2 production: concentration or dose not given beside the values
Description: as §1, §2

Cc1ccc(S(=O)(=O)O[C@@H]2[C@@H]3OP(=O)(O)OC[C@H]3O[C@H]2n2cnc3c(N)ncnc32)cc1 [Compound 1-5, 2'-O-Tosyl-c-AMP] was tested, and the inhibition at 0.01 µM [1] was 0%, the inhibition at 0.1 µM [1] was 16% and the inhibition at 1 µM [1] was 25%. It also gave an inhibition at 10 µM [1] of 24% and an inhibition at 100 µM [1] of 58%.
CCCN(CCC)c1ncnc2c1ncn2[C@@H]1O[C@@H]2COP(=O)(O)O[C@H]2[C@H]1OS(=O)(=O)c1ccc(C)cc1 [Compound 1-15, N^6,N^6-di-n-Propyl-2'-O-tosyl-c-AMP] was tested, and the inhibition at 0.01 µM [1] was 0%, the inhibition at 0.1 µM [1] was 6% and the inhibition at 1 µM [1] was 9%. It also gave an inhibition at 10 µM [1] of 25% and an inhibition at 100 µM [1] of 99.4%.
In the case of CCCNc1ncnc2c1ncn2[C@@H]1O[C@@H]2COP(=O)(O)O[C@H]2[C@H]1O [Compound 1-16], the inhibition at 0.01 µM [1] is reported as 0%, the inhibition at 0.1 µM [1] is reported as 2.2% and the inhibition at 1 µM [1] is reported as 12.5%. For the same compound, the inhibition at 10 µM [1] was 90.7% and the inhibition at 100 µM [1] was 99.8%.
CCCCN(CCCC)c1ncnc2c1ncn2[C@@H]1O[C@@H]2COP(=O)(O)O[C@H]2[C@H]1OS(=O)(=O)c1ccc(C)cc1 [Compound 1-22] showed an inhibition at 0.01 µM [1] of 0%, an inhibition at 0.1 µM [1] of 7% and an inhibition at 1 µM [1] of 4%. It also gave an inhibition at 10 µM [1] of 0% and an inhibition at 100 µM [1] of 99%.
Work on CCCCN(CCCC)c1ncnc2c1ncn2[C@@H]1O[C@@H]2COP(=O)(O)O[C@H]2[C@H]1O [Compound 1-24] yielded an inhibition at 0.01 µM [1] of 0%, an inhibition at 0.1 µM [1] of 27% and an inhibition at 1 µM [1] of 78%. The inhibition at 10 µM [1] was 97%, the inhibition at 100 µM [1] was 100% and the “Inhibitory capacity on two-way MLR, in words” value ([1]; two-way MLR) was “significant inhibitory capacity”. The Proliferation [2] was 16 CPM and the inhibition at 100 µM [2] was 98%.
CCCN(CCC)c1ncnc2c1nc(SCc1ccccc1)n2[C@@H]1O[C@@H]2COP(=O)(O)O[C@H]2[C@H]1O [Compound 1-42] showed an inhibition at 1 µM [1] of 0%, an inhibition at 10 µM [1] of 31% and an inhibition at 100 µM [1] of 89%.
CCCN(CCC)c1ncnc2c1ncn2[C@@H]1O[C@H](CO)[C@@H](O)[C@H]1O [Compound 1-46] showed an inhibition at 1 µM [1] of 12%, an inhibition at 10 µM [1] of 83% and an inhibition at 100 µM [1] of 98%.
For CCN(CC)c1ncnc2c1ncn2[C@@H]1O[C@H](CO)[C@@H](O)[C@H]1O [Compound 1-50], the inhibition at 1 µM [1] was 13%, the inhibition at 10 µM [1] was 45% and the inhibition at 100 µM [1] was 88%.
For C=CC[C@@H]1/C=C(\C)C[C@H](C)C[C@H](OC)[C@H]2O[C@@](O)(C(=O)C(=O)N3CCCC[C@H]3C(=O)O[C@H](/C(C)=C/[C@@H]3CC[C@@H](O)[C@H](OC)C3)[C@H](C)[C@@H](O)CC1=O)[C@H](C)C[C@@H]2OC [Fk506, reference compound], the “% Inhibition of IL-4 production” value (IL-4; 24 hours) was 98%, the IL-4 production (IL-4; 24 hours) was 18 pg/mL and the “% Inhibition of IL-4 production” value (IL-4; 48 hours) was 99%. For the same compound, the IL-4 production (IL-4; 48 hours) was 17 pg/mL, the “% Inhibition of IL-4 production” value (IL-4; 72 hours) was 99% and the IL-4 production (IL-4; 72 hours) was 10 pg/mL. For the same compound, the “% Inhibition of IL-4 production” value (IL-4; 96 hours) was 93%, the IL-4 production (IL-4; 96 hours) was 10 pg/mL and the “% Inhibition of IFN-γ production” value (Interferon-gamma; 24 hours) was 100%. The IFN-γ production (Interferon-gamma; 24 hours) was 0 pg/mL, the “% Inhibition of IFN-γ production” value (Interferon-gamma; 48 hours) was 98% and the IFN-γ production (Interferon-gamma; 48 hours) was 155 pg/mL. For the same compound, the “% Inhibition of IFN-γ production” value (Interferon-gamma; 72 hours) was 92%, the IFN-γ production (Interferon-gamma; 72 hours) was 232 pg/mL and the “% Inhibition of IFN-γ production” value (Interferon-gamma; 96 hours) was 96%. The IFN-γ production (Interferon-gamma; 96 hours) was 225 pg/mL, the “% Inhibition of IL-10 production” value (IL-10; 24 hours) was 69% and the IL-10 production (IL-10; 24 hours) was 173 pg/mL. For the same compound, the “% Inhibition of IL-10 production” value (IL-10; 48 hours) was 77%, the IL-10 production (IL-10; 48 hours) was 235 pg/mL and the “% Inhibition of IL-10 production” value (IL-10; 72 hours) was 61%. The IL-10 production (IL-10; 72 hours) was 228 pg/mL, the “% Inhibition of IL-10 production” value (IL-10; 96 hours) was 76% and the IL-10 production (IL-10; 96 hours) was 200 pg/mL. For the same compound, the “% Inhibition of IL-2 production” value (IL-2; 24 hours) was 100%, the IL-2 production (IL-2; 24 hours) was 0.7 pg/mL and the “% Inhibition of IL-2 production” value (IL-2; 48 hours) was 97%. The IL-2 production (IL-2; 48 hours) was 16 pg/mL, the “% Inhibition of IL-2 production” value (IL-2; 72 hours) was 91% and the IL-2 production (IL-2; 72 hours) was 16 pg/mL. The “% Inhibition of IL-2 production” value (IL-2; 96 hours) was 0% and the IL-2 production (IL-2; 96 hours) was 23 pg/mL.
For C=C[C@@]1(C)CC(=O)[C@]2(O)[C@@]3(C)[C@@H](O)CCC(C)(C)[C@@H]3[C@H](O)[C@H](OC(C)=O)[C@@]2(C)O1 [Forskolin, reference compound], the inhibition at 0.01 µM [1] was 20%, the inhibition at 0.1 µM [1] was 28% and the inhibition at 1 µM [1] was 31%. It also gave an inhibition at 10 µM [1] of 55%, an inhibition at 100 µM [1] of 60% and a Proliferation [2] of 476 CPM. It also gave an inhibition at 100 µM [2] of 55%.
CCCC(=O)Nc1ncnc2c1ncn2[C@@H]1O[C@@H]2COP(=O)(O)O[C@H]2[C@H]1OC(=O)CCC [dbcAMP, reference compound] gave a Proliferation [2] of 645 CPM and an inhibition at 100 µM [2] of 38%.
